Results from patent US9493464B2, “Wee1 degradation inhibitors” (The Scripps Research Institute, priority 2012, dated 2016).
“And” between values parts separate entries of the source, which are not always exact repeats. Identical values can stand only once. “Also recorded” adds a separate entry of the source.

Experiments:
[1] = test system: HEK-SW cells; experiment: Amyloid β 1-42 production (AlphaLISA); format: cell-based; conditions: 1 μM; supernatant at 48 hours post plating; result in words
Description: HEK-SW cells, which artificially overexpress mutated APP (K670N/M671L), the so-called Swedish mutation, were cultured on D-MEM supplemented with 10% FBS. HEK-SW cells were kindly provided by laboratory of Dr. Dennis Selkoe. HEK-SW cells were plated in 96 well plates (10,000 cells/well) and at 24 hours post plating replaced media and started treatments. […] DAPT, N [(3,5-Difluorophenyl)acetyl]-L-alanyl-2-phenyl]glycine-1,1-dimethylethyl ester, is a known inhibitor of γ-secretase purchased from TOCRIS Bioscience (Ellisville, Mo., USA). Supernatant of cells were collected at 48 hours post plating and concentration of Amyloid β 1-42 (Aβ 1-42) measured by AlphaLISA method (PerkinElmer, Waltham, Mass., USA) following instructions from the company.

[2] = target: CK1δ (Homo sapiens, UniProt P48730); experiment: In vitro kinase assay, CK1d, 32P-ATP filter binding (Reaction Biology Corporation); format: biochemical; conditions: 10 μM ATP; read-out: CK1δ IC50
Chain of CK1δ (P48730 whole entry): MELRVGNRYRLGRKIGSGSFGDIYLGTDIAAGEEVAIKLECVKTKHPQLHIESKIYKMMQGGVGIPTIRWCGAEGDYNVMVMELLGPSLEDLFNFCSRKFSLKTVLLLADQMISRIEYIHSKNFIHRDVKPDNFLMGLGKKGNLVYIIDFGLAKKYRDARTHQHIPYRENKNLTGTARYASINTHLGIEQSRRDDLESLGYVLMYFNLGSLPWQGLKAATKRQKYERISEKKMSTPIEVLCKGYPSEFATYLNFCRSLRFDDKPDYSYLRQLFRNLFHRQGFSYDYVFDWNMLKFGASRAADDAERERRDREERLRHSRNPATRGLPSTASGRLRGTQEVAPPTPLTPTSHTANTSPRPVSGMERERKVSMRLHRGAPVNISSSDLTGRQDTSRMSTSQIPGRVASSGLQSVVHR
Description: (§1) Compounds were tested in 10-dose IC50 mode with 3-fold serial dilution starting at 50 μM. […] Reactions were carried out at 10 μM ATP. Average and standard deviations of reactions carried out in triplicate are shown.
(§2) In vitro kinase assay to detect CK1 or FLT3 activity: CK1 and FLT3 assays as well as complete kinase profile of 296 kinases was performed by Reaction Biology Corporation. For FLT3 20 μM final Abltide was used, sequence: [[…]]. For CK1 (all isoforms) 20 μM CK1 tide was used, sequence: [KRRRAL[pS]VASLPGL] in a standard kinase assay with ^32P-ATP and purified kinase. Incorporation of ^32P-ATP into the peptide was measured after a filter-binding assay. In-house CK1d inhibition assays were performed using a standard homogenous time-resolved fluorescence resonance energy transfer (TR-FRET) format in 50 mM Hepes, pH 7.0, 2.5 mM MgCl2, 0.1 mg/ml bovine serum albumin, 1 mM DL-dithiothreitol, 0.01% Triton X-100 (all from Sigma-Aldrich). Briefly, the CK1δ substrate (DEKTDDE, containing CK1 consensus sequence; 4 μL of a 500 nM stock solution) is labeled with a small Ulight acceptor dye (PerkinElmer). In the presence of 10 μL of 10 nM CK1δ, the Ulight peptide is phosphorylated at a single amino acid that is specifically recognized by a europium chelate (Eu)-labeled phosphospecific antibody. Assays were performed in the presence of 2 μL of compound at different (measured) concentrations, and reactions were stopped by adding 10 μL of 4 nM Eu-anti-p-Topo-IIa (PerkinElmer) in Lance Detection Buffer (Perkin Elmer). Upon excitation of the Eu-labeled antibody, energy is transferred to the acceptor dye resulting in the emission of detected light at 665 nm.

[3] = test system: HeLa cells; experiment: PI-FACS cell cycle analysis; format: cell-based; conditions: 24 hours, result in words
Excerpt: FIG. 11 illustrates inhibition of CK1δ and CK1ε can induce an S/G2/M phase arrest.

[4] = test system: 296 kinases; experiment: Kinase profile of 296 kinases (Reaction Biology Corporation); format: biochemical; conditions: result in words
[5] = test system: endogenous Wee1; experiment: Western blot of endogenous Wee1; format: cell-based; conditions: result in words
Description: (§3) The percentage of signal relative to the proteasome inhibitor MG132 is shown. […] A Western blot is shown of endogenous Wee1 or Skp1 (loading control) of HeLa cells incubated with 5 μM of indicated compounds for 24 hours. […] The 0 time point was set to 100%. […] The extent of degradation was measured as in FIG. D.

[6] = test system: Luciferase; experiment: Luciferase alone control (PGL3 vector); format: cell-based; conditions: HeLa cells, cycloheximide, 5 μM; result in words
Description: as §3
5 μM of indicated compounds were incubated with K328M-Wee1-Luciferase or Luciferase expressing HeLa cells and the extent of stabilization measured after adding Brite-lite. MG132 was used as a positive control.
Similar assays have previously been described; PubChem AID 1807.

[7] = test system: K328M-Wee1-luciferase; experiment: K328M-Wee1-luciferase degradation with cycloheximide; format: cell-based; conditions: HeLa cells, 5 μM, result in words
Description: as §3

[8] = target: T1, CK1ε (Homo sapiens, UniProt P49674); experiment: In vitro kinase assay, CK1ε (Reaction Biology Corporation); format: biochemical; conditions: 10 μM ATP
T1 construct: Reaction Biology Corporation (contract assay)
T1 sequence (P49674 whole entry): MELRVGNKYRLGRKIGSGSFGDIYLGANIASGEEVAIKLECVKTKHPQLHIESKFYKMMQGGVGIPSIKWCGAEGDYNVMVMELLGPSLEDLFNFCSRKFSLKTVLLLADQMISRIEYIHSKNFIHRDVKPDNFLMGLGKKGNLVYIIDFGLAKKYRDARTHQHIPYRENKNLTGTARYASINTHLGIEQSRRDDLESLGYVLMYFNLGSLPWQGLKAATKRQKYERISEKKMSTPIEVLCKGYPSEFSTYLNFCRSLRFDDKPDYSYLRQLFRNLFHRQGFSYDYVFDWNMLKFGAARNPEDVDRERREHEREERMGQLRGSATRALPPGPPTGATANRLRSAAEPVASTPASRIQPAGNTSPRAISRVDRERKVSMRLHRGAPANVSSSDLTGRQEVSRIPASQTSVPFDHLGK
Description: as §1
as §2, with “Briefly, the CK1δ substrate (DEKTDDE, containing CK1 consensus sequence; 4 μL of a 500 nM stock solution) is labeled with a small Ulight acceptor dye (PerkinElmer). In the presence of 10 μL of 10 nM CK1δ, the Ulight peptide is phosphorylated at a single amino acid that is specifically recognized by a europium chelate (Eu)-labeled phosphospecific antibody.” left out

[9] = test system: cyclin dependent kinases; experiment: Kinase activity, cyclin dependent kinases; format: biochemical; conditions: result in words
Excerpt: CNS neurogenesis requires Cdk1 activity regulated by the phosphatase Cdc25 and the tyrosine kinase Wee1[1]. Cdk1 activity decreases in normal adult neurons and is reactivated in neurological diseases such as Alzheimer's[2]. A major mechanism controlling Cdk1 activity in neurons is Wee1 degradation via the ubiquitin proteasome pathway. It was sought to identify pathways controlling neuronal Wee1 degradation using cerebellar granule cells and a reporter of Wee1 turnover, K328M-Wee1-Luciferase[4].

Structure (SMILES) | Aβ1-42 production [1] | IC50 [2] | cell cycle arrest [3] | selectivity among 296 kinases [4] | steady-state levels of endogenous Wee1 [5] | luciferase degradation [6] | K328M-Wee1-luciferase degradation [7] | IC50 [8] | activity toward cyclin dependent kinases [9]
O=[N+]([O-])c1cccc2[nH]c(CNc3nc(N4CCOCC4)nc4c3ncn4-c3ccsc3)nc12 [SR-1277] | inhibit Aβ1-42 production | 49 nM | induced an S/G2/M arrest |  |  |  |  |  | 
c1ccc2[nH]c(CNc3nc(N4CCOCC4)nc4c3ncn4-c3ccsc3)nc2c1 [SR-653234] | inhibit Aβ1-42 production | 161 nM and 540 nM | induced an S/G2/M arrest | highly selective for casein kinase | increased the steady-state levels of endogenous Wee1 | does not affect luciferase degradation | inhibited degradation of K328M-Wee1-luciferase; also recorded: inhibits K328M-Wee1-luciferase degradation | 100 nM | does not show any appreciable activity
